Source: patent US20070117834A1, “Methods and compositions for treating Huntington's disease” (priority 2005, published 2007)
“Also recorded” adds a separate entry of the source.

What was measured:
[1] = test system: wildtype Drosophila fruit flies; assay: Toxicity of dimebon in wildtype Drosophila (eclosion number and timing); format: in vivo
Procedure: Dimebon was evaluated for toxicity levels in wildtype Drosophila fruit flies. Dimebon was administered daily at doses ranging from 10 μM to 1 mM to explore its toxicity. An untreated control group was also studied in this experiment. The concentrations given were concentrations of dimebon in the food that animals drink/eat ad libitum. The food consisted of cornmeal (61.2 g), dextrose (129.4. g), yeast (32.4 g) and agar (9.3 g) in 1 liter of water. Concentrated compounds were added to melted agar food cooled to just above the point of setting (about 40° C.), mixed and dispensed.
About 500 wild type Drosophila eggs were collected on grape juice plates for 20 hours, washed with distilled water and transferred 100 per vial to grow at 25 degrees C. The adult progeny were scored after eclosing (emerging from the pupal case) beginning 10 days later to assess developmental delay and toxicity. The criteria used for toxicity were the number (%) of animals that eclose and the time of the eclosing. For example, fewer animals may emerge from the pupal case if a drug is toxic or the same number of animals may eclose but more slowly than the untreated control group.
The toxicity test employed five concentrations (10 μM, 30 μM, 100 μM, 300 μM, 1 mM) plus an untreated control and was repeated with five sets of flies. […] At 1 mM, there was approximately a 20% decrease in eclosion observed, indicating toxicity at this food concentration. ANOVA analysis indicated a significant difference between datasets (p=0.0031), with post-hoc testing indicating a significant difference between the control and 1 mM datasets (p<0.01).

[2] = test system: transgenic Drosophila engineered to express the mutant huntingtin protein in all their neurons; assay: Inhibition of mutant huntingtin-induced neurodegeneration of photoreceptor neurons in Drosophila eyes (pseudopupil scoring); format: in vivo; conditions: for rescue of photoreceptor neurons / rescue of photoreceptor neurons compared to untreated controls: FIG. 2; for rescue of photoreceptor neurons compared to untreated controls: 7 days on drug-containing food; for suppression of photoreceptor neuron degeneration, retest: FIG. 3; for protection of photoreceptors, overall statement: in vivo
Procedure: Dimebon was administered to one group of transgenic Drosophila engineered to express the mutant huntingtin protein in all their neurons. This was accomplished by cloning a foreign gene into transposable p-element DNA vectors under control of a yeast upstream activator sequence that is activated by the yeast GAL4 transcription factor. These promoter fusions were injected into fly embryos to produce transgenic animals. The foreign gene is silent until crossed to another transgenic strain of flies expressing the GAL4 gene in a tissue specific manner. The Elav>Gal4 which expresses the transgene in all neurons from birth until death was used in the experiments described.
For compound testing, 20-30 Httex1pQ93 virgins were mated to elav>Gal4 males and eggs were collected for about 20 hours at 25° C. and dispensed into vials (expected about 70% lethality from Htt effects). Upon eclosion, at least 80, 0-8 hour old flies were harvested and place on drug-containing food (20 eclosed adults per vial) and scored when 7 days old. Inhibitor-containing food was prepared just before tester flies began to emerge.
The two types of transgenic animals were crossed in order to collect enough closely matched aged controls to study. The crossed aged-matched adults (about 20 per dosing group) were placed on drug-containing food for 7 days. Animals were transferred to fresh food daily to minimize any effects caused by instability of the compounds. Survival was scored daily. The average number of photoreceptors at day zero was determined by scoring 7-10 of the newly eclosed tester siblings within six hours of eclosing. This established the baseline of degeneration at the time of exposure to drug. At day 7, animals were sacrificed and the number of photoreceptor neurons surviving was counted. […] For pseudopupil analysis, flies were decapitated and the heads are mounted in a drop of nail polish on a microscopic slide. The head was then covered with immersion oil and light is projected through the eye of the fly using a Nikon EFD-3/Optiphot-2 compound microscope with a 50× oil objective.

[3] = test system: transgenic Drosophila engineered to express the mutant huntingtin protein in all their neurons; assay: Motor ability (climbing assay) in the Drosophila model; format: in vivo; conditions: for numbers surviving to be tested at day 7: initial number of 20 animals at day 0
Procedure: The motor function of Drosophila obtained as described in the examples above was assessed by exploiting the strong negative geotropism of flies to climb upwards when they are tapped to the bottom of a vial. See, Le Bourg and Lint (1992) Hypergravity and aging in Drosophila melanogaster. 4. […] activity. Gerontology 38, 59-64. Animals were placed in a graduated vessel (e.g., a measuring cylinder). The distance climbed in 10 seconds was measured for each animal over 3 trials with a 5 minute rest period. In a separate experiment using tall thin plastic tubes rather than glass vials, the distance climbed in 30 seconds was also measured. Animals were scored for outcome without knowledge of treatment group. Flies were tested for functional rescue using a behavior assay (climbing assay) where the distance climbed was measured. […] In this assay, climbing was scored blind and each animal was given 3 trials that were then averaged. The climbing of 7 day old animals reared on 0, 10, 100 or 1,000 μM containing food was compared as was the climbing of animals on the day of eclosion. Two trials were performed. In the first, the ability to climb in large glass vials was monitored over 10 seconds. […] The second trial was similar to the first except that animals were tested in tall thin plastic tubes for climbing over 30 seconds. […] The data from the two independent climbing trials are plotted as individual data points in FIG. 6A and 6B. A higher statistical power (e.g., 0.8) given the observed standard deviations and differences of the means may be achieved by doubling the size of the experiment for the highest concentration and increasing about 10 fold for the lower concentrations.

[4] = test system: transgenic Drosophila engineered to express the mutant huntingtin protein in all their neurons; conditions: historical reference; cited from earlier work

Row | Compound | timing of emergence slowed ([1]; 1 mM) | decrease in eclosion ([1]; 1 mM in the food) [%] | toxicity (tolerability) ([1]; 10 to 300 μM in the food, below 1 mM, dihydrochloride) | toxicity in Drosophila, overall statement ([1]; FIG. 1 / experimental summary) | rescue of photoreceptor neurons ([2]; 10 μM) | rescue of photoreceptor neurons compared to untreated controls ([2]; 100 μM, dihydrochloride) | rescue of photoreceptor neurons compared to untreated controls ([2]; 100 μM, listed as Dimebon, dihydrochloride) | suppression of photoreceptor neuron degeneration, retest ([2]; 100 μM, dihydrochloride) | rescue of photoreceptor neurons ([2]; 1 mM) | suppression of photoreceptor neuron degeneration, lower concentrations ([2]; 1, 10 and 30 μM, FIG. 4, dihydrochloride) | suppression of photoreceptor neuron degeneration, retest ([2]; higher doses (300 or 1,000 μM)) | protection of photoreceptors, overall statement ([2]; dihydrochloride) | protection of photoreceptors, overall statement ([2]; listed as Dimebon, dihydrochloride) | previously measured optimum concentration ([2]; photoreceptor rescue) [µM] | numbers surviving to be tested at day 7 ([3]; 10 μM) | numbers surviving to be tested at day 7 ([3]; 100 μM) | climbing behavior over 10 seconds ([3]; 1 mM (1000 μM), 7 day old animals, glass vials, FIG. 5, dihydrochloride) | numbers surviving to be tested at day 7 ([3]; 1 mM) | climbing behavior over 30 seconds ([3]; 10, 100 or 1,000 μM, tall thin plastic tubes, second trial, dihydrochloride) | rescue of photoreceptor neurons, historical positive control [4]
1 | Cc1ccc2c(c1)c1c(n2CCc2ccc(C)nc2)CCN(C)C1.Cl.Cl [dimebon, 2,8-dimethyl-5-(2-(6-methyl-3-pyridyl)-ethyl)-2,3,4,5-tetrahydro-1H-pyrido[4,3-b]indole dihydrochloride] | approximately 1 day | ~20 | generally well tolerated; also recorded: no significant toxicity | minimal toxicity | lesser but still apparent rescue of neurons | statistically significant (p=0.0014) rescue of neurons | significant suppression of neuronal degeneration | significant improvement; also recorded: significant rescue | still appeared to cause neuronal rescue, but to a lesser extent | no statistically significant improvement; also recorded: modest tendency for improved photoreceptor numbers | no statistically demonstrable improvement | effective in inhibiting mutant huntingtin-induced neurodegeneration | protect photoreceptors in a dose-dependant manner | 100 | 8 | 12 | significant difference between the control and 1000 μM; also recorded: statistically significant improvement in climbing; also recorded: statistical difference between D7ND and 1 mM | 8 | No statistically demonstrable difference between treated and control groups | –
2 | C[C@@H](N)[C@H]1CC[C@H](C(=O)Nc2ccncc2)CC1 [Y-27632] | – | – | – | – | – | – | – | – | – | – | – | – | – | – | – | – | – | – | – | strongly rescuing
